According to US7855211B2, “Protein kinase inhibitors” (Eli Lilly and Company, priority 2008, dated 2010):
pIC50: −log10 of the molar value. Read-outs that look alike come from different tables or passages of the source.

How the values were obtained:
[1] = system: Calu-6 (lung) subcutaneous xenografts; assay: Calu-6 (lung) subcutaneous xenograft, combination study with gemcitabine; type: in vivo, human; settings: 60 mpk, IP, q3dx7
Protocol: (§1) Test compound is prepared in an appropriate vehicle (1% hydroxyethyl cellulose, in 25 mM phosphate buffer pH 2) and is administered by oral gavage daily (at 25, 50 or 100 mg/kg (mpk)) for 21 days when tumours are established (11-29 days after implant). Tumour response is determined by tumour volume measurement performed twice a week during the course of treatment.
(§2) The statistical method for assessing Tumour Growth Delay (TGD-Individual interpolation method) is as follows: For each animal, the time to reach a specified tumour volume (threshold) is calculated by interpolating between the last measurement before reaching the threshold and the next measurement. The interpolation is linear using log10(volume) vs. time. If an animal never reaches the threshold, its crossing time is reported at “>T” where T is the last day measured for that animal. These crossing times are analyzed as “time-to-event” data with right-censoring using a Weibull distribution. A mean and standard deviation are determined for each treatment group. Tumour growth delay (TGD) is the difference in mean crossing time between a treated group and the vehicle control group. T-tests are performed using the means and standard deviations from the Weibull analysis. Body weight is taken as a general measurement of toxicity.
Calu-6 (lung) subcutaneous xenografts are grown and measured as previously described. Gemcitabine was formulated in saline (0.9% sodium chloride in purified water) and administered via intraperitoneal injection q3dx7. Test compound was administered qdx21. A comparison of the single agent activity of gemcitabine with combination treatments containing both gemcitabine and the compound of Example 16 are shown in Table 10. Tumour growth is analyzed by 2-way interaction analysis.

Solubility Assay = type: physicochemical; settings: aqueous buffer, thermodynamic from solid; pH 8 phosphate buffer, ambient temperature, at least 16 hours, target 2.0 mg/mL
Protocol: The appropriate amounts of test compound are weighed into separate chromatographic vials. […] The vials are capped securely and placed in a rotation device. The vials are rotated through 360° for at least 16 hours at ambient temperature with an angular speed of about 50 rpm. A visual examination of the individual vials is performed after rotation. 250 μL from each vial is filtered through a 0.7 μm glass filter. The sample filtrate and standard filtrate are collected into separate wells of 96 deep well plates. […] The sample and standard solutions are analysed by HPLC (LC Column: […] A—0.2% Formic Acid in Water; B—0.2% Formic Acid in acetonitrile; […] Diode array detector scan from 200 nm to 400 nm. The wavelength extracted and used for quantitation is selected to provide the most accurate estimation of the sample preparations.) Retention time used for peak assignment for the test compound is obtained from the 200 μg/mL standard preparation chromatogram. Solubility values are calculated using a four-level calibration curve. The line of best fit for peak area of calibration standards calculated by chromatographic management data system using linear or quadratic through zero fit is used. Solubility results are reported in mg/mL. Preferred exemplified compounds display a solubility of at least 2 mg/ml in pH 8 phosphate buffer using the above assay.

[2] = system: Human colorectal cancer cells (colo-205); assay: Human subcutaneous xenograft model, colo-205, athymic nude mice; type: in vivo; settings: oral gavage daily for 21 days
Protocol: as §1, §2

[3] = system: human acute myeloid leukaemia (AML) cells (MV4-11); assay: Human subcutaneous xenograft model, MV4-11, athymic nude mice; type: in vivo; settings: for TGD Days (750 m3): oral gavage daily for 21 days
Protocol: as §1, §2

[4] = system: human glioblastoma cells (U87MG); assay: Human subcutaneous xenograft model, U87MG, athymic nude mice; type: in vivo; settings: U87 MG, oral gavage daily for 21 days
Protocol: as §1, §2

[5] = system: human lung cancer cells (NCI H460); assay: Human subcutaneous xenograft model, NCI H460, athymic nude mice; type: in vivo; settings: oral gavage daily for 21 days
Protocol: as §1, §2

[6] = system: U87 MG human glioblastoma tumour cells; assay: Orthotopic Brain Xenograft Model, NIH-RNU rats, survival; type: in vivo
Source text: Test compound is formulated in vehicle (1% w/v hydroxyethylcellulose/0.25% v/v polysorbate 80/0.05% v/v antifoam in purified water) and administered every day for 21 days at 20, 40 and 80 mpk (qdx21) and 80 mpk q2dx10 starting on day 4 after tumour implant.
The primary outcome variable is survival.

[7] = Plasma and brain exposure in non-tumour bearing male Sprague Dawley rats; type: in vivo, rat; settings: male SD rats; for concentration at 2 h / concentration at 4 h / concentration at 24 h / concentration at 48 h: single oral dose 30 mg/kg
Protocol: Samples are taken over 48 h in order to determine plasma and brain concentrations. Animals are sacrificed, and whole blood collected by cardiac puncture and plasma isolated by centrifugation. Whole brain is collected and snapped frozen in liquid nitrogen. […] An internal standard compound in acetonitrile/methanol (1:1, v/v) is added to samples of plasma or brain homogenate to precipitate protein and the samples are centrifuged prior to analysis. The supernatants are analysed by injection and rapid gradient elution on a Javelin Betasil C18 column (20×2.1 mm cartridge, Mobile phase A: […] The eluted analytes are detected by LC-MS-MS analysis using a Sciex API 4000 triple quadrupole mass spectrometer. Concentrations of compounds in plasma or brain are determined from standards prepared under identical conditions. The plasma and brain concentrations are determined in this study from a group of three rats at each time point (see Tables 6a and 6b) and are used to calculate the area under the plasma concentration/time curve or the brain concentration/time curve from 0 to 48 hours. […] Maximal concentrations (Tmax) are detected at 4 h.

CDK6 = biological target: T1, CDK6 (Homo sapiens, UniProt Q00534); assay: CDK6 Inhibition Assay; type: biochemical; settings: CDK6 kinase, 33P-ATP, CTRF substrate
T1 construct: purchased Proqinase 7533
T1 sequence (Q00534 whole entry): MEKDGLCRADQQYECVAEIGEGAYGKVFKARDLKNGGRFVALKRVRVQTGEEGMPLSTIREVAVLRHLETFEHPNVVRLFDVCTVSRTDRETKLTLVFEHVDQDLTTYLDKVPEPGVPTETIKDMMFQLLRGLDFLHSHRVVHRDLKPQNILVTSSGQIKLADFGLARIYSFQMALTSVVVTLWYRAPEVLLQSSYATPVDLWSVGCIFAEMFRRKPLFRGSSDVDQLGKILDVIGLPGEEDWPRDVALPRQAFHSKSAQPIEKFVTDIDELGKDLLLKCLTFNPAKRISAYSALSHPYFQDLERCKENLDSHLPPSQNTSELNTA
T1 sequence (P24385 whole entry partner): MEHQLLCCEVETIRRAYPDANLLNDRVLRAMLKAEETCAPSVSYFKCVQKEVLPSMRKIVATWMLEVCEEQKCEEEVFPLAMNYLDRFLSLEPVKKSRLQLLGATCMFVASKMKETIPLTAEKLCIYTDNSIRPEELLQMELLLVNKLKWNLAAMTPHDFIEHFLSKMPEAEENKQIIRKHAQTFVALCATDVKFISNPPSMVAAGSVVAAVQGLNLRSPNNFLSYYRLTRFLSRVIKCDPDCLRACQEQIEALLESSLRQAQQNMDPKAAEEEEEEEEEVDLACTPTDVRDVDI
Protocol: 10 μL of test compound in 20% DMSO, 20 μL of ATP and CTRF (Upstate cat # 12-439) solution, and 10 μL of enzyme solution are mixed in a 96 well plate. The ATP and CRTF solution is prepared to give a final concentration of 100 μM ATP, 0.5 μCi [^33P]-ATP and 0.8 μM CTRF diluted in kinase buffer of 68 mM HEPES pH 7.4, 6.72 mM MgCl2, 2.64 mM DTT, and 0.004% TRITON™ X-100. The enzyme solution is prepared for a final concentration of 1.7 ng/μL CDK6 enzyme (Proqinase cat # 7533) diluted in the kinase buffer described above in the CDK4 inhibition assay. Test compounds are serially diluted 1:3 in 20% DMSO to create a 10 point curve at a starting concentration of 20 μM. 20% DMSO buffer alone without added test compound is employed as a control, 500 mM EDTA is used to determine the level of background ^33P in the absence of enzyme activity. Reagents are mixed and incubated for 90 min at 20° C. The reaction is terminated by the addition of 80 μL 10% (v/v) H3PO4 and precipitation of material onto glass fiber filter plates (Millipore, MAFC N0B 50). The wells are washed four times with 0.5% H3PO4 and the radioactivity incorporated is determined with a microplate scintillation counter (Microbeta Trilux, Wallac).
The data is analyzed in the same manner as for CDK4. Preferred exemplified compounds display an IC50 of <30 nM in the above assay. […]

[8] = system: U87 MG subcutaneous xenografts; assay: U87 MG subcutaneous xenograft, combination study with temozolomide; type: in vivo, human; settings: 3 mpk, IP, q7dx2
Protocol: as §1, §2
U87 MG subcutaneous xenografts are grown and measured as previously described. The compound of Example 16 is formulated and administered as previously described and dosed orally once a day from days 11-31. Temozolomide (Schering Corporation) is formulated in 1% w/v hydroxyethylcellulose/0.25% v/v polysorbate 80 in purified water and administered by interperitoneal injection on days 11 and 18. A comparison of the single agent activity of temozolomide with a combination treatment with the compound of Example 16 is shown in Table 7. Tumor growth is analyzed by 2-way interaction analysis; log-transformed tumor volumes were analyzed with a repeated measures analysis of variance (ANOVA) using a spatial power correlation model in SAS, version 9.1 (Cary, N.C.). […]

[9] = system: U87 MG orthotopic brain xenografts; assay: U87 MG orthotopic brain xenograft, combination study with temozolomide; settings: TMZ IP 3 mg/kg (days 6 and 13)
Protocol: In vivo brain tumour model: Male NIH-RNU rats weighing between 225 and 300 g are anesthetized with isoflurane and placed into a stereotaxic frame (David Kopf Instruments, Tujunga, Calif.). A mid-line incision is made and a 1 mm burr hole drilled 2 mm lateral from the midline and 3 mm anterior to the coronal suture. A cell suspension of 5×10^5 U87 MG human glioblastoma tumour cells (grown in Eagle's MEM with Earle Salts, L-glutamine and non essential amino acids, 1 mM Na pyruvate and 10% FBS) in 10 μL (5×10^5 cells for qd dosing and 1×10^6 for q2d dosing) is injected at a depth of 3 mm by means of a 25 or 50 μl Hamilton syringe over a period of approximately 2 min using a stereotaxic-mounted syringe pump (Nano-Injector, model #53310 and Stereotaxic Adapter Clamp, part #51681, Stoelting Co, Wood Dale, Ill.) with the syringe left in place for an additional 1 min to prevent backflow and the syringe is slowly withdrawn. […]
The primary outcome variable is survival. Animals are monitored daily until death and, in consultation with the veterinary staff and in adherence with the policy on tumour implantation, euthanized if the animal becomes moribund. […] Survival data are analyzed by the Kaplan-Meier method for median survival analysis using JMP ν6.0.2 (SAS Institute).

[10] = Sprague Dawley, rat, brain, read-out: Brain concentration (Mean)
[11] = Sprague Dawley, rat, plasma, read-out: Plasma concentration (Mean)

SMILES: Cl.Nc1ccn([C@@H]2O[C@H](CO)[C@@H](O)C2(F)F)c(=O)n1 (single isomer, unassigned) [Gemcitabine, 2′-deoxy-2′,2′-difluorocytidine monohydrochloride (β-isomer)]
- Dead/total animals [1]: 0/7
- Maximum body weight loss (%) [1]: −12%
- Tumor volume (mg) at end of dosing period (day 38) [1]: 509.18 mg

SMILES: CCN1CCN(Cc2ccc(Nc3ncc(F)c(-c4cc(F)c5nc(C)n(C(C)C)c5c4)n3)nc2)CC1.CS(=O)(=O)O [Example 16, [5-(4-Ethyl-piperazin-1-ylmethyl)-pyridin-2-yl]-[5-fluoro-4-(7-fluoro-3-isopropyl-2-methyl-3H-benzoimidazol-5-yl)-pyrimidin-2-yl]-amine methanesulfonate]
- solubility (Solubility Assay): 2100 µg/mL
- TGD Days (750 m3) ([2]; colo-205, 25 mpk): 15.3 days
- TGD Days (750 m3) ([2]; colo-205, 50 mpk): 17.4 days
- TGD Days (750 m3) ([2]; colo-205, 100 mpk): 39.9 days
- tumour response ([3]; AML MV4-11 xenografts, 100 mg per Kg (mpk)): tumour regression is observed
- TGD Days (750 m3) ([3]; MV4-11, 25 mpk): 10.4 days
- TGD Days (750 m3) ([3]; MV4-11, 50 mpk): 11.5 days
- Tumor volume (mg) at start of dosing period (day 28) ([3]; MV4-11, 100 mpk, PO, qdx21, day 28): 225.94 mg
- Tumor volume (mg) at end of dosing period (day 49) ([3]; MV4-11, 100 mpk, PO, qdx21, day 49): 116.68 mg
- TGD Days (750 m3) ([3]; MV4-11, 100 mpk): 28.8 days
- TGD Days (750 m3) ([4]; 25 mpk): 6.1 days
- TGD Days (750 m3) ([4]; 50 mpk): 10.0 days
- TGD Days (750 m3) ([4]; 100 mpk): 21.4 days
- TGD Days (750 m3) ([5]; H460, 25 mpk): 1.5 days
- TGD Days (750 m3) ([5]; H460, 50 mpk): 4.0 days
- TGD Days (750 m3) ([5]; H460, 100 mpk): 6.7 days
- median survival compared to vehicle treated animals ([6]; 40 mpk qd, 80 mpk qd and 80 mpk q2d): statistically significant increase in median survival
- Mean Survival ([6]; PO 20 mg/kg qd): 29.8 days
- Median Survival ([6]; PO 20 mg/kg qd): 31 days
- Mean Survival ([6]; PO 40 mg/kg qd): 34.3 days
- Median Survival ([6]; PO 40 mg/kg qd): 37 days
- Mean Survival ([6]; PO 80 mg/kg q2d): 33.0 days
- Median Survival ([6]; PO 80 mg/kg q2d): 34 days
- Mean Survival ([6]; PO 80 mg/kg qd): 36.9 days
- Median Survival ([6]; PO 80 mg/kg qd): 37 days
- concentration at 2 h [7, 10]: 758 ng/g
- concentration at 4 h [7, 10]: 1500 ng/g
- concentration at 24 h [7, 10]: 992 ng/g
- concentration at 48 h [7, 10]: 718 ng/g
- Cmax ([7]; Sprague Dawley, rat, plasma, 30 mg/kg oral): 1500 ng/mL
- concentration at 2 h [7, 11]: 1010 ng/mL
- concentration at 4 h [7, 11]: 1500 ng/mL
- concentration at 24 h [7, 11]: 1020 ng/mL
- concentration at 48 h [7, 11]: 972 ng/mL
- Tmax ([7]; Sprague Dawley, rat, 30 mg/kg oral, plasma and brain, read-out: Maximal concentrations (Tmax)): 4 h
- Cmax Brain ([7]; 30 mg/kg oral): 1500 ng/g
- Tmax Brain ([7]; 30 mg/kg oral): 4.00 h
- Tmax Plasma ([7]; 30 mg/kg oral): 4.00 h
- blood-brain barrier penetration ([7]; 30 mg/kg oral): able to cross the blood-brain barrier and distributes well into the brain
- AUC Brain ([7]; 30 mg/kg oral, 0-48 Hours): 47900 ng·h/g
- AUC Plasma ([7]; 30 mg/kg oral, 0-48 Hours): 52300 ng·h/mL
- Kp ([7]; male, Sprague Dawley, rat, brain/plasma, po, 30 mg/kg, 30 mg/kg oral, 0-48 Hours, read-out: AUC Brain/Plasma Ratio): 0.92
- Kp ([7]; male, Sprague Dawley, rat, brain/plasma, po, 30 mg/kg, 30 mg/kg oral, by AUC or Cmax, read-out: brain/plasma ratio): ~1
- Kp at 4 h ([7]; male, Sprague Dawley, rat, brain/plasma, po, 30 mg/kg, 30 mg/kg oral, read-out: Cmax Brain/Plasma Ratio): 1

SMILES: Cc1nc2c(F)cc(-c3nc(Nc4ccc(CN5CCN(C(C)C)CC5)cn4)ncc3F)cc2n1C(C)C [Example 19, [5-Fluoro-4-(7-fluoro-3-isopropyl-2-methyl-3H-benzoimidazol-5-yl)-pyrimidin-2-yl]-[5-(4-isopropyl-piperazin-1-ylmethyl)-pyridin-2-yl]-amine methanesulfonate]
- pIC50 (CDK6): 8.30

SMILES: Cn1nnc2c(C(N)=O)ncn2c1=O [Temozolomide]
- Dead/total animals [8]: 0/8
- Maximum body weight loss (%) [8]: −1%
- Tumor volume (mg) at end of dosing period (day 31) [8]: 101.88 mg
- Mean Survival [9]: 46.9 days
- Median Survival [9]: 47 days
